According to ChEMBL document CHEMBL4715697, “Synthesis and biological activity of benzamide DNA minor groove binders” (2016):

Key:
[1] = test system: SF-295; assay: Growth inhibition of human SF-295 cells assessed as cell growth at 10 uM incubated for 48 hrs by sulforhodamine B assay relative to control; format: functional; conditions: read-out: Activity
[2] = test system: UACC-62; assay: Growth inhibition of human UACC-62 cells assessed as cell growth at 1 uM incubated for 48 hrs by sulforhodamine B assay relative to control; format: functional; conditions: read-out: Activity
[3] = test system: HCT-15; assay: Growth inhibition of human HCT-15 cells assessed as cell growth at 0.1 uM incubated for 48 hrs by sulforhodamine B assay relative to control; format: functional; conditions: read-out: Activity
[4] = test system: SK-OV-3; assay: Growth inhibition of human SK-OV-3 cells assessed as cell growth at 10 uM incubated for 48 hrs by sulforhodamine B assay relative to control; format: functional; conditions: read-out: Activity
[5] = test system: A549; assay: Growth inhibition of human A549/ATCC cells assessed as cell growth at 10 uM incubated for 48 hrs by sulforhodamine B assay relative to control; format: functional; conditions: read-out: Activity
[6] = test system: Poly(dA-dT)oligonucleotide; assay: Displacement of ethidium bromide from minor groove of poly(dA:dT) dsDNA (unknown origin) by fluorescence spectrophotometry; format: nucleic-acid assay
[7] = test system: NCI/ADR-RES; assay: Growth inhibition of human NCI/ADR-RES cells assessed as cell growth at 10 uM incubated for 48 hrs by sulforhodamine B assay relative to control; format: functional; conditions: read-out: Activity
[8] = test system: MDA-MB-435; assay: Growth inhibition of human MDA-MB-435 cells assessed as cell growth at 0.1 uM incubated for 48 hrs by sulforhodamine B assay relative to control; format: functional; conditions: read-out: Activity
[9] = test system: SW-620; assay: Growth inhibition of human SW-620 cells assessed as cell growth at 0.01 uM incubated for 48 hrs by sulforhodamine B assay relative to control; format: functional; conditions: read-out: Activity
[10] = test system: M14; assay: Growth inhibition of human M14 cells assessed as cell growth at 0.01 uM incubated for 48 hrs by sulforhodamine B assay relative to control; format: functional; conditions: read-out: Activity
[11] = test system: SF-268; assay: Growth inhibition of human SF-268 cells incubated for 48 hrs by sulforhodamine B assay; format: functional
[12] = test system: MCF7; assay: Growth inhibition of human MCF7 cells assessed as cell growth at 0.1 uM incubated for 48 hrs by sulforhodamine B assay relative to control; format: functional; conditions: read-out: Activity
[13] = test system: RPMI-8226; assay: Growth inhibition of human RPMI-8226 cells assessed as cell growth at 0.01 uM incubated for 48 hrs by sulforhodamine B assay relative to control; format: functional; conditions: read-out: Activity
[14] = test system: DU-145; assay: Growth inhibition of human DU-145 cells assessed as cell growth at 0.01 uM incubated for 48 hrs by sulforhodamine B assay relative to control; format: functional; conditions: read-out: Activity
[15] = test system: Hs-578T; assay: Growth inhibition of human Hs-578T cells incubated for 48 hrs by sulforhodamine B assay; format: functional
[16] = test system: RXF 393; assay: Growth inhibition of human RXF 393 cells assessed as cell growth at 10 uM incubated for 48 hrs by sulforhodamine B assay relative to control; format: functional; conditions: read-out: Activity
[17] = test system: EKVX; assay: Growth inhibition of human EKVX cells assessed as cell growth at 10 uM incubated for 48 hrs by sulforhodamine B assay relative to control; format: functional; conditions: read-out: Activity
[18] = test system: UO-31; assay: Growth inhibition of human UO-31 cells assessed as cell growth at 0.01 uM incubated for 48 hrs by sulforhodamine B assay relative to control; format: functional; conditions: read-out: Activity
[19] = test system: CCRF-CEM; assay: Growth inhibition of human CCRF-CEM cells assessed as cell growth at 10 uM incubated for 48 hrs by sulforhodamine B assay relative to control; format: functional; conditions: read-out: Activity
[20] = test system: HOP-62; assay: Growth inhibition of human HOP-62 cells assessed as cell growth at 0.01 uM incubated for 48 hrs by sulforhodamine B assay relative to control; format: functional; conditions: read-out: Activity
[21] = test system: SF-295; assay: Growth inhibition of human SF-295 cells assessed as cell growth at 0.01 uM incubated for 48 hrs by sulforhodamine B assay relative to control; format: functional; conditions: read-out: Activity
[22] = test system: K562; assay: Growth inhibition of human K562 cells assessed as cell growth at 10 uM incubated for 48 hrs by sulforhodamine B assay relative to control; format: functional; conditions: read-out: Activity
[23] = test system: DU-145; assay: Growth inhibition of human DU-145 cells assessed as cell growth at 10 uM incubated for 48 hrs by sulforhodamine B assay relative to control; format: functional; conditions: read-out: Activity
[24] = test system: NCI-H23; assay: Growth inhibition of human NCI-H23 cells assessed as cell growth at 100 uM incubated for 48 hrs by sulforhodamine B assay relative to control; format: functional; conditions: read-out: Activity
[25] = test system: OVCAR-4; assay: Growth inhibition of human OVCAR-4 cells assessed as cell growth at 10 uM incubated for 48 hrs by sulforhodamine B assay relative to control; format: functional; conditions: read-out: Activity
[26] = test system: MDA-MB-231; assay: Growth inhibition of human MDA-MB-231 cells assessed as cell growth at 10 uM incubated for 48 hrs by sulforhodamine B assay relative to control; format: functional; conditions: read-out: Activity
[27] = test system: NCI-H23; assay: Growth inhibition of human NCI-H23 cells assessed as cell growth at 10 uM incubated for 48 hrs by sulforhodamine B assay relative to control; format: functional; conditions: read-out: Activity
[28] = test system: COLO 205; assay: Growth inhibition of human COLO 205 cells assessed as cell growth at 10 uM incubated for 48 hrs by sulforhodamine B assay relative to control; format: functional; conditions: read-out: Activity
[29] = test system: SK-OV-3; assay: Growth inhibition of human SK-OV-3 cells assessed as cell growth at 100 uM incubated for 48 hrs by sulforhodamine B assay relative to control; format: functional; conditions: read-out: Activity
[30] = test system: A498; assay: Growth inhibition of human A498 cells assessed as cell growth at 10 uM incubated for 48 hrs by sulforhodamine B assay relative to control; format: functional; conditions: read-out: Activity
[31] = test system: Poly(dA-dT)oligonucleotide; assay: Binding affinity to minor groove of poly(dA:dT) dsDNA (unknown origin) assessed as change in melting temperature by UV-vis spectrophotometry based DNA melting assay; format: nucleic-acid assay
[32] = test system: MOLT-4; assay: Growth inhibition of human MOLT-4 cells assessed as cell growth at 10 uM incubated for 48 hrs by sulforhodamine B assay relative to control; format: functional; conditions: read-out: Activity
[33] = test system: SNB-75; assay: Growth inhibition of human SNB-75 cells incubated for 48 hrs by sulforhodamine B assay; format: functional
[34] = test system: NCI-H460; assay: Growth inhibition of human NCI-H460 cells assessed as cell growth at 10 uM incubated for 48 hrs by sulforhodamine B assay relative to control; format: functional; conditions: read-out: Activity
[35] = test system: Hs-578T; assay: Growth inhibition of human Hs-578T cells assessed as cell growth at 10 uM incubated for 48 hrs by sulforhodamine B assay relative to control; format: functional; conditions: read-out: Activity
[36] = test system: MCF7; assay: Growth inhibition of human MCF7 cells assessed as cell growth at 1 uM incubated for 48 hrs by sulforhodamine B assay relative to control; format: functional; conditions: read-out: Activity
[37] = test system: SR; assay: Growth inhibition of human SR cells assessed as cell growth at 10 uM incubated for 48 hrs by sulforhodamine B assay relative to control; format: functional; conditions: read-out: Activity
[38] = test system: SW-620; assay: Growth inhibition of human SW-620 cells assessed as cell growth at 10 uM incubated for 48 hrs by sulforhodamine B assay relative to control; format: functional; conditions: read-out: Activity
[39] = read-out: LC50 (the source's name)
[40] = read-out: pLC50 (the source's name) (converted)

## CC(=O)Nc1cc(CCl)cc(NC(=O)c2ccc(C(=O)Nc3cccc(NC(=O)CCCN(C)C)c3)cc2)c1
[1]
  growth at 10 µM: 66%
[2]
  growth at 1 µM: 102%
[3]
  growth at 0.1 µM: 88%
[4]
  growth at 10 µM: 114%
[5]
  growth at 10 µM: 101%
[6]
  C50: 9.9 µM
[7]
  growth at 10 µM: 100%
[8]
  growth at 0.1 µM: 93%
[9]
  growth at 0.01 µM: 106%
[10]
  growth at 0.01 µM: 108%
[11]; read-out: GI50
  GI50: > 100 µM
[11]; read-out: LC50
  LC50: > 100 µM
[11]; read-out: TGI
  TGI: > 100 µM
[11]; read-out: pGI50 (converted)
  GI50: > 100 µM
[11]; read-out: pLC50 (converted)
  LC50: > 100 µM
[11]; read-out: pTGI
  TGI: > 100 µM
[12]
  growth at 0.1 µM: 87%
[13]
  growth at 0.01 µM: 110%
[14]
  growth at 0.01 µM: 106%
[15]; read-out: GI50
  GI50: > 100 µM
[15]; [39]
  CC50: > 100 µM
[15]; read-out: TGI
  TGI: > 100 µM
[15]; read-out: pGI50 (converted)
  GI50: > 100 µM
[15]; [40]
  CC50: > 100 µM
[15]; read-out: pTGI
  TGI: > 100 µM
[16]
  growth at 10 µM: 96%
[17]
  growth at 10 µM: 86%
[18]
  growth at 0.01 µM: 94%
[19]
  growth at 10 µM: 114%
[20]
  growth at 0.01 µM: 101%
[21]
  growth at 0.01 µM: 74%
[22]
  growth at 10 µM: 113%
[23]
  growth at 10 µM: 106%
[24]
  growth at 100 µM: 79%
[25]
  growth at 10 µM: 99%
[26]
  growth at 10 µM: 106%
[27]
  growth at 10 µM: 93%
[28]
  growth at 10 µM: 105%
[29]
  growth at 100 µM: 109%
[30]
  growth at 10 µM: 87%
[31]
  ΔTm: 38.7 °C
[32]
  growth at 10 µM: 102%
[33]; read-out: GI50
  GI50: > 100 µM
[33]; read-out: LC50
  LC50: > 100 µM
[33]; read-out: TGI
  TGI: > 100 µM
[33]; read-out: pGI50 (converted)
  GI50: > 100 µM
[33]; read-out: pLC50 (converted)
  LC50: > 100 µM
[33]; read-out: pTGI
  TGI: > 100 µM
[34]
  growth at 10 µM: 110%
[35]
  growth at 10 µM: 111%
[36]
  growth at 1 µM: 81%
[37]
  growth at 10 µM: 125%
[38]
  growth at 10 µM: 107%

## CC(=O)Nc1cc(CO[Si](C)(C)C(C)(C)C)cc(NC(=O)c2ccc(C(=O)Nc3cccc(NC(=O)CCCN(C)C)c3)cc2)c1
[1]
  growth at 10 µM: 95%
[2]
  growth at 1 µM: 99%
[3]
  growth at 0.1 µM: 91%
[4]
  growth at 10 µM: 103%
[5]
  growth at 10 µM: 86%
[6]
  C50: 5 µM
[7]
  growth at 10 µM: 88%
[8]
  growth at 0.1 µM: 98%
[9]
  growth at 0.01 µM: 100%
[10]
  growth at 0.01 µM: 97%
[11]; read-out: GI50
  GI50: > 75 µM
[11]; read-out: LC50
  LC50: > 75 µM
[11]; read-out: TGI
  TGI: > 75 µM
[11]; read-out: pGI50 (converted)
  GI50: > 75.9 µM
[11]; read-out: pLC50 (converted)
  LC50: > 75.9 µM
[11]; read-out: pTGI
  TGI: > 75.9 µM
[12]
  growth at 0.1 µM: 101%
[13]
  growth at 0.01 µM: 95%
[14]
  growth at 0.01 µM: 103%
[15]; read-out: GI50
  GI50: > 75 µM
[15]; [39]
  CC50: > 75 µM
[15]; read-out: TGI
  TGI: > 75 µM
[15]; read-out: pGI50 (converted)
  GI50: > 75.9 µM
[15]; [40]
  CC50: > 75.9 µM
[15]; read-out: pTGI
  TGI: > 75.9 µM
[16]
  growth at 10 µM: 95%
[17]
  growth at 10 µM: 91%
[18]
  growth at 0.01 µM: 83%
[19]
  growth at 10 µM: 109%
[20]
  growth at 0.01 µM: 97%
[21]
  growth at 0.01 µM: 98%
[22]
  growth at 10 µM: 93%
[23]
  growth at 10 µM: 97%
[24]
  growth at 100 µM: 84%
[25]
  growth at 10 µM: 85%
[26]
  growth at 10 µM: 99%
[27]
  growth at 10 µM: 90%
[28]
  growth at 10 µM: 98%
[29]
  growth at 100 µM: 93%
[30]
  growth at 10 µM: 77%
[31]
  ΔTm: 47.2 °C
[32]
  growth at 10 µM: 91%
[33]; read-out: GI50
  GI50: > 75 µM
[33]; read-out: LC50
  LC50: > 75 µM
[33]; read-out: TGI
  TGI: > 75 µM
[33]; read-out: pGI50 (converted)
  GI50: > 75.9 µM
[33]; read-out: pLC50 (converted)
  LC50: > 75.9 µM
[33]; read-out: pTGI
  TGI: > 75.9 µM
[34]
  growth at 10 µM: 95%
[35]
  growth at 10 µM: 111%
[36]
  growth at 1 µM: 101%
[37]
  growth at 10 µM: 108%
[38]
  growth at 10 µM: 99%
